For 16 molecules, POD vs vehicle results are on record in the supplement of paper PMC11368000.

A value given as a limit tells only on which side of the number the result lay.

In the first assay the test system is 1518 (donor line of iPSC-derived cardiomyocytes). Put plainly: POD (EC05) for increase in beat frequency (positive chronotrope) vs vehicle; higher = less potent (higher point of departure). The conditions noted are these: exposure time: 90 min. The procedure:
(§1)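 Human iPSC-derived cardiomyocytes from 16 donors were exposed for 90 min at 37 °C to each PFAS at 0.1, 1, 10 and 100 µM in 0.5% DMSO, 384-well plates. Kinetic Ca2+ flux (FLIPR) and Hoechst nuclei counts were normalised to vehicle wells and fitted with a hierarchical Bayesian Hill model to give donor-specific PODs: EC05 for beat-rate increase or decrease and for decay-to-rise ratio increase (QT proxy), EC95 for peak-frequency loss (asystole), EC10 for total cell number loss. 0.03 µM is the lower bound.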
In the case of `O=C(O)C(F)(F)C(F)(F)OC(F)(F)F` [Perfluoro-3-methoxypropanoic_acid], the POD vs vehicle is above 100 µM.
Same read-out and setting: the value for `O=C(O)C(F)(F)C(F)(F)C(F)(F)OC(F)(C(F)(F)F)C(F)(F)F` [Perfluoro-4-isopropoxybutanoic_acid] was above 100 µM.
`O=C(O)C(F)(F)C(F)(F)C(F)(F)F` [Perfluorobutanoic_acid]: the POD vs vehicle is above 100 µM.
On the same count and under the same terms, for `O=C(O)C(F)(F)C(F)(F)C(F)(F)C(F)(F)C(F)(F)C(F)(F)C(F)(F)C(F)(F)C(F)(F)F` [Perfluorodecanoic_acid] the value was above 100 µM; for `O=C(O)C(F)(F)C(F)(F)C(F)(F)C(F)(F)C(F)(F)C(F)(F)F` [Perfluoroheptanoic_acid], above 100 µM; for `NS(=O)(=O)C(F)(F)C(F)(F)C(F)(F)C(F)(F)C(F)(F)C(F)(F)F` [Perfluorohexanesulfonamide], above 100 µM.
The same measure, in the same setting: the value for `O=S(=O)(O)C(F)(F)C(F)(F)C(F)(F)C(F)(F)C(F)(F)C(F)(F)F` [Perfluorohexanesulfonic_acid] was above 100 µM.
For the molecule `O=C(O)C(F)(F)C(F)(F)C(F)(F)C(F)(F)C(F)(F)F` [Perfluorohexanoic_acid], the POD vs vehicle is above 100 µM.
Take `O=C(O)C(F)(F)C(F)(F)C(F)(F)C(F)(F)C(F)(F)C(F)(F)C(F)(F)C(F)(F)F` [Perfluorononanoic_acid]: the POD vs vehicle was above 100 µM.
As to `NC(=O)C(F)(F)C(F)(F)C(F)(F)C(F)(F)C(F)(F)C(F)(F)C(F)(F)F` [Perfluorooctanamide], the POD vs vehicle is above 100 µM.
Turning to `N=C(N)C(F)(F)C(F)(F)C(F)(F)C(F)(F)C(F)(F)C(F)(F)C(F)(F)F` [Perfluorooctanamidine], the POD vs vehicle is above 100 µM.
The same measure, in the same setting: for `O=S(=O)(O)C(F)(F)C(F)(F)C(F)(F)C(F)(F)C(F)(F)C(F)(F)C(F)(F)C(F)(F)F` [Perfluorooctanesulfonic_acid] the value was above 100 µM.
On to `O=C(O)C(F)(F)C(F)(F)C(F)(F)C(F)(F)C(F)(F)C(F)(F)C(F)(F)F` [Perfluorooctanoic_acid], for which the POD vs vehicle was above 100 µM.
The same measure, in the same setting: the value for `O=C(O)C(F)(F)C(F)(F)C(F)(F)C(F)(F)F` [Perfluoropentanoic_acid] was above 100 µM; that for `O=C(O)C(F)(F)C(F)(F)F` [Perfluoropropanoic_acid] was above 100 µM; that for `O=S(=O)([O-])C(F)(F)C(F)(F)C(F)(F)C(F)(F)F.[K+]` [Potassium_perfluorobutanesulfonate] was above 100 µM.

In a further assay the test system is 1516 (donor line of iPSC-derived cardiomyocytes). The description is as above. To be noted: exposure time: 90 min. The procedure:
as §1
`O=C(O)C(F)(F)C(F)(F)OC(F)(F)F` [Perfluoro-3-methoxypropanoic_acid] gave a POD vs vehicle above 100 µM.
In turn, `O=C(O)C(F)(F)C(F)(F)C(F)(F)OC(F)(C(F)(F)F)C(F)(F)F` [Perfluoro-4-isopropoxybutanoic_acid] showed a POD vs vehicle above 100 µM.
On the same count and under the same terms, the value for `O=C(O)C(F)(F)C(F)(F)C(F)(F)F` [Perfluorobutanoic_acid] was above 100 µM; that for `O=C(O)C(F)(F)C(F)(F)C(F)(F)C(F)(F)C(F)(F)C(F)(F)C(F)(F)C(F)(F)C(F)(F)F` [Perfluorodecanoic_acid] was above 100 µM.
Still for that read-out and setting: the value for `O=C(O)C(F)(F)C(F)(F)C(F)(F)C(F)(F)C(F)(F)C(F)(F)F` [Perfluoroheptanoic_acid] was above 100 µM; that for `NS(=O)(=O)C(F)(F)C(F)(F)C(F)(F)C(F)(F)C(F)(F)C(F)(F)F` [Perfluorohexanesulfonamide] was above 100 µM; that for `O=S(=O)(O)C(F)(F)C(F)(F)C(F)(F)C(F)(F)C(F)(F)C(F)(F)F` [Perfluorohexanesulfonic_acid] was above 100 µM.
Molecule `O=C(O)C(F)(F)C(F)(F)C(F)(F)C(F)(F)C(F)(F)F` [Perfluorohexanoic_acid] registered a POD vs vehicle above 100 µM.
With `O=C(O)C(F)(F)C(F)(F)C(F)(F)C(F)(F)C(F)(F)C(F)(F)C(F)(F)C(F)(F)F` [Perfluorononanoic_acid], the POD vs vehicle is above 100 µM.
As for `NC(=O)C(F)(F)C(F)(F)C(F)(F)C(F)(F)C(F)(F)C(F)(F)C(F)(F)F` [Perfluorooctanamide], the POD vs vehicle was above 100 µM.
Same read-out and setting: for `N=C(N)C(F)(F)C(F)(F)C(F)(F)C(F)(F)C(F)(F)C(F)(F)C(F)(F)F` [Perfluorooctanamidine] the value was above 100 µM.
Still for that read-out and setting: the value for `O=S(=O)(O)C(F)(F)C(F)(F)C(F)(F)C(F)(F)C(F)(F)C(F)(F)C(F)(F)C(F)(F)F` [Perfluorooctanesulfonic_acid] was above 100 µM.
In the case of `O=C(O)C(F)(F)C(F)(F)C(F)(F)C(F)(F)C(F)(F)C(F)(F)C(F)(F)F` [Perfluorooctanoic_acid], the POD vs vehicle was above 100 µM.
The same measure, in the same setting: the value for `O=C(O)C(F)(F)C(F)(F)C(F)(F)C(F)(F)F` [Perfluoropentanoic_acid] was above 100 µM; that for `O=C(O)C(F)(F)C(F)(F)F` [Perfluoropropanoic_acid] was above 100 µM; that for `O=S(=O)([O-])C(F)(F)C(F)(F)C(F)(F)C(F)(F)F.[K+]` [Potassium_perfluorobutanesulfonate] was above 100 µM.

In a further assay the test system is 1531 (donor line of iPSC-derived cardiomyocytes). Described as above. To be noted: exposure time: 90 min. As to the method:
as §1
The molecule `O=C(O)C(F)(F)C(F)(F)OC(F)(F)F` [Perfluoro-3-methoxypropanoic_acid] returned a POD vs vehicle above 100 µM.
On the same count and under the same terms, for `O=C(O)C(F)(F)C(F)(F)C(F)(F)OC(F)(C(F)(F)F)C(F)(F)F` [Perfluoro-4-isopropoxybutanoic_acid] the value was above 100 µM; for `O=C(O)C(F)(F)C(F)(F)C(F)(F)F` [Perfluorobutanoic_acid], above 100 µM.
With `O=C(O)C(F)(F)C(F)(F)C(F)(F)C(F)(F)C(F)(F)C(F)(F)C(F)(F)C(F)(F)C(F)(F)F` [Perfluorodecanoic_acid], the POD vs vehicle was above 100 µM.
As to `O=C(O)C(F)(F)C(F)(F)C(F)(F)C(F)(F)C(F)(F)C(F)(F)F` [Perfluoroheptanoic_acid], the POD vs vehicle was above 100 µM.
The molecule `NS(=O)(=O)C(F)(F)C(F)(F)C(F)(F)C(F)(F)C(F)(F)C(F)(F)F` [Perfluorohexanesulfonamide] displayed a POD vs vehicle above 100 µM.
The molecule `O=S(=O)(O)C(F)(F)C(F)(F)C(F)(F)C(F)(F)C(F)(F)C(F)(F)F` [Perfluorohexanesulfonic_acid] registered a POD vs vehicle above 100 µM.
In turn, `O=C(O)C(F)(F)C(F)(F)C(F)(F)C(F)(F)C(F)(F)F` [Perfluorohexanoic_acid] had a POD vs vehicle above 100 µM.
On the same count and under the same terms, for `O=C(O)C(F)(F)C(F)(F)C(F)(F)C(F)(F)C(F)(F)C(F)(F)C(F)(F)C(F)(F)F` [Perfluorononanoic_acid] the value was above 100 µM.
On the same count and under the same terms, for `NC(=O)C(F)(F)C(F)(F)C(F)(F)C(F)(F)C(F)(F)C(F)(F)C(F)(F)F` [Perfluorooctanamide] the value was above 100 µM; for `N=C(N)C(F)(F)C(F)(F)C(F)(F)C(F)(F)C(F)(F)C(F)(F)C(F)(F)F` [Perfluorooctanamidine], above 100 µM; for `O=S(=O)(O)C(F)(F)C(F)(F)C(F)(F)C(F)(F)C(F)(F)C(F)(F)C(F)(F)C(F)(F)F` [Perfluorooctanesulfonic_acid], above 100 µM.
Take `O=C(O)C(F)(F)C(F)(F)C(F)(F)C(F)(F)C(F)(F)C(F)(F)C(F)(F)F` [Perfluorooctanoic_acid]: the POD vs vehicle was above 100 µM.
Consider `O=C(O)C(F)(F)C(F)(F)C(F)(F)C(F)(F)F` [Perfluoropentanoic_acid], for which the POD vs vehicle was above 100 µM.
`O=C(O)C(F)(F)C(F)(F)F` [Perfluoropropanoic_acid] registered a POD vs vehicle above 100 µM.
For `O=S(=O)([O-])C(F)(F)C(F)(F)C(F)(F)C(F)(F)F.[K+]` [Potassium_perfluorobutanesulfonate], the POD vs vehicle is above 100 µM.

The next assay relates to 11235 (donor line of iPSC-derived cardiomyocytes). Described as above. The conditions noted are these: exposure time: 90 min. The procedure:
as §1
In the case of `O=C(O)C(F)(F)C(F)(F)OC(F)(F)F` [Perfluoro-3-methoxypropanoic_acid], the POD vs vehicle is above 100 µM.
On the same count and under the same terms, for `O=C(O)C(F)(F)C(F)(F)C(F)(F)OC(F)(C(F)(F)F)C(F)(F)F` [Perfluoro-4-isopropoxybutanoic_acid] the value was above 100 µM.
`O=C(O)C(F)(F)C(F)(F)C(F)(F)F` [Perfluorobutanoic_acid]: the POD vs vehicle is above 100 µM.
The same measure, in the same setting: for `O=C(O)C(F)(F)C(F)(F)C(F)(F)C(F)(F)C(F)(F)C(F)(F)C(F)(F)C(F)(F)C(F)(F)F` [Perfluorodecanoic_acid] the value was above 100 µM; for `O=C(O)C(F)(F)C(F)(F)C(F)(F)C(F)(F)C(F)(F)C(F)(F)F` [Perfluoroheptanoic_acid], above 100 µM.
`NS(=O)(=O)C(F)(F)C(F)(F)C(F)(F)C(F)(F)C(F)(F)C(F)(F)F` [Perfluorohexanesulfonamide] gave a POD vs vehicle above 100 µM.
Still for that read-out and setting: for `O=S(=O)(O)C(F)(F)C(F)(F)C(F)(F)C(F)(F)C(F)(F)C(F)(F)F` [Perfluorohexanesulfonic_acid] the value was above 100 µM.
`O=C(O)C(F)(F)C(F)(F)C(F)(F)C(F)(F)C(F)(F)F` [Perfluorohexanoic_acid] displayed a POD vs vehicle above 100 µM.
Still for that read-out and setting: for `O=C(O)C(F)(F)C(F)(F)C(F)(F)C(F)(F)C(F)(F)C(F)(F)C(F)(F)C(F)(F)F` [Perfluorononanoic_acid] the value was above 100 µM; for `NC(=O)C(F)(F)C(F)(F)C(F)(F)C(F)(F)C(F)(F)C(F)(F)C(F)(F)F` [Perfluorooctanamide], above 100 µM; for `N=C(N)C(F)(F)C(F)(F)C(F)(F)C(F)(F)C(F)(F)C(F)(F)C(F)(F)F` [Perfluorooctanamidine], above 100 µM.
The same measure, in the same setting: the value for `O=S(=O)(O)C(F)(F)C(F)(F)C(F)(F)C(F)(F)C(F)(F)C(F)(F)C(F)(F)C(F)(F)F` [Perfluorooctanesulfonic_acid] was above 100 µM; that for `O=C(O)C(F)(F)C(F)(F)C(F)(F)C(F)(F)C(F)(F)C(F)(F)C(F)(F)F` [Perfluorooctanoic_acid] was above 100 µM; that for `O=C(O)C(F)(F)C(F)(F)C(F)(F)C(F)(F)F` [Perfluoropentanoic_acid] was above 100 µM.
Take `O=C(O)C(F)(F)C(F)(F)F` [Perfluoropropanoic_acid]: the POD vs vehicle is above 100 µM.
On the same count and under the same terms, the value for `O=S(=O)([O-])C(F)(F)C(F)(F)C(F)(F)C(F)(F)F.[K+]` [Potassium_perfluorobutanesulfonate] was above 100 µM.

The subject of another assay is 1535 (donor line of iPSC-derived cardiomyocytes). The description is as above. The conditions noted are these: exposure time: 90 min. As to the method:
as §1
Consider `O=C(O)C(F)(F)C(F)(F)OC(F)(F)F` [Perfluoro-3-methoxypropanoic_acid], for which the POD vs vehicle is above 100 µM.
On the same count and under the same terms, the value for `O=C(O)C(F)(F)C(F)(F)C(F)(F)OC(F)(C(F)(F)F)C(F)(F)F` [Perfluoro-4-isopropoxybutanoic_acid] was above 100 µM.
Same read-out and setting: the value for `O=C(O)C(F)(F)C(F)(F)C(F)(F)F` [Perfluorobutanoic_acid] was above 100 µM; that for `O=C(O)C(F)(F)C(F)(F)C(F)(F)C(F)(F)C(F)(F)C(F)(F)C(F)(F)C(F)(F)C(F)(F)F` [Perfluorodecanoic_acid] was above 100 µM; that for `O=C(O)C(F)(F)C(F)(F)C(F)(F)C(F)(F)C(F)(F)C(F)(F)F` [Perfluoroheptanoic_acid] was above 100 µM.
`NS(=O)(=O)C(F)(F)C(F)(F)C(F)(F)C(F)(F)C(F)(F)C(F)(F)F` [Perfluorohexanesulfonamide]: the POD vs vehicle is above 100 µM.
Same read-out and setting: for `O=S(=O)(O)C(F)(F)C(F)(F)C(F)(F)C(F)(F)C(F)(F)C(F)(F)F` [Perfluorohexanesulfonic_acid] the value was above 100 µM; for `O=C(O)C(F)(F)C(F)(F)C(F)(F)C(F)(F)C(F)(F)F` [Perfluorohexanoic_acid], above 100 µM; for `O=C(O)C(F)(F)C(F)(F)C(F)(F)C(F)(F)C(F)(F)C(F)(F)C(F)(F)C(F)(F)F` [Perfluorononanoic_acid], above 100 µM.
Same read-out and setting: the value for `NC(=O)C(F)(F)C(F)(F)C(F)(F)C(F)(F)C(F)(F)C(F)(F)C(F)(F)F` [Perfluorooctanamide] was above 100 µM.
The same measure, in the same setting: for `N=C(N)C(F)(F)C(F)(F)C(F)(F)C(F)(F)C(F)(F)C(F)(F)C(F)(F)F` [Perfluorooctanamidine] the value was above 100 µM; for `O=S(=O)(O)C(F)(F)C(F)(F)C(F)(F)C(F)(F)C(F)(F)C(F)(F)C(F)(F)C(F)(F)F` [Perfluorooctanesulfonic_acid], above 100 µM; for `O=C(O)C(F)(F)C(F)(F)C(F)(F)C(F)(F)C(F)(F)C(F)(F)C(F)(F)F` [Perfluorooctanoic_acid], above 100 µM.
Take `O=C(O)C(F)(F)C(F)(F)C(F)(F)C(F)(F)F` [Perfluoropentanoic_acid]: the POD vs vehicle is above 100 µM.
Still for that read-out and setting: the value for `O=C(O)C(F)(F)C(F)(F)F` [Perfluoropropanoic_acid] was above 100 µM.
On the same count and under the same terms, the value for `O=S(=O)([O-])C(F)(F)C(F)(F)C(F)(F)C(F)(F)F.[K+]` [Potassium_perfluorobutanesulfonate] was above 100 µM.
